The source of these data is PubChem BioAssay (NCI).

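Compound exposure: 48 hours, 5 concentrations, 96-well plates. Abbreviation: GI50, concentration required for 50% inhibition of growth. TGI: total growth inhibition.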

The first test relates to NCI-H23 lung. In words: inhibition of tumour cell growth, NCI panel, 48 h.
With `COc1cc2cnc3c4ccccc4ccc3c2cc1OC`, the TGI was more than 100 µM.
`O=c1ncccn1C1C=C(CO)C(O)C1O` (configuration not stated): the TGI is more than 50 µM.
Take `CCN(CC)CC(=O)N1CCc2c([nH]c3ccccc23)C1c1cccnc1` (configuration not stated): the TGI is more than 100 µM.
On to `CCOC1Oc2ccccc2-c2oc(=O)c(Sc3ccc(C)cc3)cc21` (configuration not stated), for which the GI50 was 40.4 µM and the TGI is more than 100 µM.
For `CCSc1nc(N)c2cn[nH]c2n1`, in that order: 20.7 µM and 58.9 µM.
`N=S(c1ccccc1)c1ccccc1[N+](=O)[O-]` (configuration not stated) registered a TGI of 35.2 µM.
`CC1(Cc2ccccc2)NC(=S)NC1=O` (configuration not stated): the TGI was more than 100 µM.
Still for that read-out and setting: with `Cc1ccc(S(=O)(=O)N/N=C(\c2nc3ccc([N+](=O)[O-])cc3[nH]c2=O)C(O)c2ccccc2Cl)cc1` (configuration not stated) the figure was more than 100 µM.
With `O=c1c2c3c(sc2n2c(-c4cc(-c5ccccc5)nn4-c4ccccc4)nnc2n1Cc1ccccc1)CCCC3`, the GI50 was more than 100 µM and the TGI was more than 100 µM.
With `C[C@H]1[C@H](C)CC[C@]2(C(=O)NCCNCCN)CC[C@]3(C)C(=CC[C@@H]4[C@@]5(C)CCC(=O)C(C)(C)[C@@H]5CC[C@]43C)[C@H]12`, the GI50 was 2.8 µM and the TGI was 8.3 µM.
`COc1ccc(CC(C)C(C)Cc2ccc(OC)c(OC)c2)cc1OC` (configuration not stated): the GI50 was 297 µM and the TGI was more than 1400 µM.
On to `O=C1C2=C(c3ccccc31)C(c1ccccc1Cl)N1C(=O)CCSC1=N2` (configuration not stated), for which the TGI is more than 100 µM.
Consider `Cn1c2ccccc2c2c(=O)c3ccccc3[nH]c21`, for which the GI50 is 30.5 µM and the TGI is more than 100 µM.

For the next test, the system named is SF-295 CNS. In words: inhibition of tumour cell growth, NCI panel, 48 h.
As for `CC1(c2ccccc2)CC(c2ccccc2)=NO1` (configuration not stated), the TGI is more than 100 µM.
In turn, `COc1cccc(/C=C2\CCC(C)(CN(C)C)C2=O)c1` (configuration not stated) displayed a TGI of more than 100 µM.
On to `CCN(CC)CCNC(=O)c1cn2ncnc(Oc3ccc(NC(=O)Nc4ccc(Cl)c(C(F)(F)F)c4)c(F)c3)c2c1C`, for which the GI50 is 1.66 µM and the TGI turned out to be 3.07 µM.
With `Cl[Si]1(Cl)Oc2ccccc2O[Si](Cl)(Cl)Oc2ccccc2O1`, the TGI worked out at 98.2 µM.
Take `C=CCC1[C@@H](C(C)(C)C(C(C)=O)C(=O)C(=O)OC)OC(C(C)(C)C)N1C(=O)OC` (some centres not stated): the TGI is more than 100 µM.
On the same count and under the same terms, with `CCOC(=O)C(=O)Nc1ccccc1C(F)(F)F` the figure was more than 100 µM; with `CCOC(=O)/C(=C/c1cccc(OC)c1)N(CC)CC`, more than 100 µM; with `C=CCOC(=O)CC[N+]1=CCC(c2ccccc2)(c2ccccc2)O1`, more than 100 µM.
Same read-out and setting: as for `Cc1c(C(=O)CSc2nc3ccccc3c(=O)n2-c2ccccc2)c(=O)n(-c2ccccc2)n1C`, the figure is 66.2 µM.
For `C#CCC(N)(CO)C(=O)O` (configuration not stated), the TGI was more than 100 µM.
On the same count and under the same terms, as for `COc1cc2cnc3c4ccccc4ccc3c2cc1OC`, the figure is more than 100 µM.
As to `O=C(c1ccc2ccccc2c1)c1c(C(F)(F)F)n([O-])c2ccc(Cl)cc2[n+]1=O`, the GI50 is 1.66 µM and the TGI amounted to 3.08 µM.
`O=c1ncccn1C1C=C(CO)C(O)C1O` (configuration not stated) came in with a TGI of more than 50 µM.
On to `CCN(CC)CC(=O)N1CCc2c([nH]c3ccccc23)C1c1cccnc1` (configuration not stated), for which the TGI is more than 100 µM.
As to `CCOC1Oc2ccccc2-c2oc(=O)c(Sc3ccc(C)cc3)cc21` (configuration not stated), the GI50 was 19.2 µM and the TGI is more than 100 µM.
For `CCSc1nc(N)c2cn[nH]c2n1`, in that order: 32.1 µM and 85.3 µM.
The molecule `N=S(c1ccccc1)c1ccccc1[N+](=O)[O-]` (configuration not stated) returned a TGI of 36.7 µM.
On the same count and under the same terms, as for `CC1(Cc2ccccc2)NC(=S)NC1=O` (configuration not stated), the figure is more than 100 µM; as for `Cc1ccc(S(=O)(=O)N/N=C(\c2nc3ccc([N+](=O)[O-])cc3[nH]c2=O)C(O)c2ccccc2Cl)cc1` (configuration not stated), more than 100 µM.
On to `O=c1c2c3c(sc2n2c(-c4cc(-c5ccccc5)nn4-c4ccccc4)nnc2n1Cc1ccccc1)CCCC3`, for which the GI50 is more than 100 µM and the TGI was more than 100 µM.
Turning to `COc1ccc(CC(C)C(C)Cc2ccc(OC)c(OC)c2)cc1OC` (configuration not stated), the GI50 was 642 µM and the TGI is more than 1400 µM.
`O=C1C2=C(c3ccccc31)C(c1ccccc1Cl)N1C(=O)CCSC1=N2` (configuration not stated) showed a TGI of more than 100 µM.
As for `Cn1c2ccccc2c2c(=O)c3ccccc3[nH]c21`, the GI50 is 82.8 µM and the TGI was more than 100 µM.

The subject of another test is HCT-116 colon. In words: inhibition of tumour cell growth, NCI panel, 48 h.
As for `CC1(c2ccccc2)CC(c2ccccc2)=NO1` (configuration not stated), the TGI was more than 100 µM.
The same measure, in the same setting: with `COc1cccc(/C=C2\CCC(C)(CN(C)C)C2=O)c1` (configuration not stated) the figure was more than 100 µM.
On to `CCN(CC)CCNC(=O)c1cn2ncnc(Oc3ccc(NC(=O)Nc4ccc(Cl)c(C(F)(F)F)c4)c(F)c3)c2c1C`, for which the GI50 is 1.48 µM and the TGI was 3.18 µM.
Molecule `Cl[Si]1(Cl)Oc2ccccc2O[Si](Cl)(Cl)Oc2ccccc2O1` returned a TGI of more than 100 µM.
In the case of `C=CCC1[C@@H](C(C)(C)C(C(C)=O)C(=O)C(=O)OC)OC(C(C)(C)C)N1C(=O)OC` (some centres not stated), the TGI was more than 100 µM.
Still for that read-out and setting: as for `CCOC(=O)C(=O)Nc1ccccc1C(F)(F)F`, the figure is more than 100 µM; as for `CCOC(=O)/C(=C/c1cccc(OC)c1)N(CC)CC`, more than 100 µM.
On the same count and under the same terms, as for `C=CCOC(=O)CC[N+]1=CCC(c2ccccc2)(c2ccccc2)O1`, the figure is more than 100 µM; as for `Cc1c(C(=O)CSc2nc3ccccc3c(=O)n2-c2ccccc2)c(=O)n(-c2ccccc2)n1C`, more than 100 µM; as for `C#CCC(N)(CO)C(=O)O` (configuration not stated), more than 100 µM.
Turning to `O=C(c1ccc2ccccc2c1)c1c(C(F)(F)F)n([O-])c2ccc(Cl)cc2[n+]1=O`, the GI50 is 1 µM and the TGI is 2.33 µM.
Molecule `CCN(CC)CC(=O)N1CCc2c([nH]c3ccccc23)C1c1cccnc1` (configuration not stated) displayed a TGI of more than 100 µM.
Take `CCSc1nc(N)c2cn[nH]c2n1`: the GI50 was 30.5 µM and the TGI is more than 100 µM.
With `N=S(c1ccccc1)c1ccccc1[N+](=O)[O-]` (configuration not stated), the TGI turned out to be 31.6 µM.
On the same count and under the same terms, as for `Cc1ccc(S(=O)(=O)N/N=C(\c2nc3ccc([N+](=O)[O-])cc3[nH]c2=O)C(O)c2ccccc2Cl)cc1` (configuration not stated), the figure is more than 100 µM.
